Values quoted from earlier work in US20250241296A1, “HIGH-LOAD AGRICULTURAL FORMULATIONS AND METHODS OF MAKING SAME” (priority 2022, published 2025).

What was measured:
[1] = footnote a: values from the Chemistry Dashboard of the US Environmental Protection Agency
[2] = footnote a: values from the Chemistry Dashboard of the US Environmental Protection Agency; remark: listed apart in the source

Q: For `CNC(=O)c1cc(Cl)cc(C)c1NC(=O)c1cc(Br)nn1-c1ncccc1Cl` [Chlorantraniliprole], which Density [1] is on record?
A: 1.65^a g/mL

Q: For `Fc1ccc([C@]2(Cn3cncn3)O[C@H]2c2ccccc2Cl)cc1` (racemic) [Epoxiconazole], which Density [1] is on record?
A: 1.42^a g/mL

Q: For `CC12CC1(C)C(=O)N(c1cc(Cl)cc(Cl)c1)C2=O` (stereo not drawn) [Procymidone], which Density [1] is on record?
A: 1.43^a g/mL

Q: For `N#Cc1ccccc1NC(=O)c1snc(Cl)c1Cl` [Isotianil], which Density [1] is on record?
A: 1.56^a g/mL

Q: Which Density [1] does the source give for `CNC(=O)/C(=N/OC)c1ccccc1Oc1ccccc1` [Metominostrobin] here?
A: 1.13^a g/mL

Q: For `O=[N+]([O-])c1cc(C(F)(F)F)c(Cl)c([N+](=O)[O-])c1Nc1ncc(C(F)(F)F)cc1Cl` [Fluazinam], which Density [1] is on record?
A: 1.80^a g/mL

Q: With `CCCC1COC(Cn2cncn2)(c2ccc(Cl)cc2Cl)O1` (stereo not drawn) [Propiconazole] as the compound, how does the Density [1] read?
A: 1.39^a g/mL

Q: Which Density [1] does the source give for `N#Cc1c[nH]cc1-c1cccc2c1OC(F)(F)O2` [Fludioxinil] here?
A: 1.54^a g/mL

Q: With `COC(=O)Nc1nc2ccccc2[nH]1` [Carbendazim] as the compound, how does the Density [1] read?
A: 1.39^a g/mL

Q: For Abamectin, which “Solubility in Water” value [2] is on record?
A: 36.4^a mg/L

Q: And the Density [1]?
A: 1.28^a g/mL

Q: Which “Solubility in Water” value [2] does the source give for `CO/C=C(/C(=O)OC)c1ccccc1Oc1cc(Oc2ccccc2C#N)ncn1` [Azoxystrobin] here?
A: 6.01^a mg/L

Q: And the Density [1]?
A: 1.34^a g/mL

Q: For Spinosad, which “Solubility in Water” value [2] is on record?
A: 295^a mg/L

Q: And the Density [1]?
A: 1.20^a g/mL

Q: For `Cc1nn(C)c(F)c1C(=O)Nc1ccccc1C(C)CC(C)C` (stereo not drawn) [Penflufen], which Density [1] is on record?
A: 1.18^a g/mL

Q: With `COCC(=O)N(c1c(C)cccc1C)[C@H](C)C(=O)OC` [Metalaxyl-M] as the compound, how does the Density [1] read?
A: 1.09^a g/mL

Q: Which Density [1] does the source give for `COC(=O)N(OC)c1ccccc1COc1ccn(-c2ccc(Cl)cc2)n1` [Pyraclostrobin] here?
A: 1.34^a g/mL

Q: With `CO/C=C(/C(=O)OC)c1ccccc1COc1cccc(C(F)(F)F)n1` [Picoxystrobin] as the compound, how does the “Solubility in Water” value [2] read?
A: 8.30^a mg/L

Q: What about the Density [1] of the same compound?
A: 1.28^a g/mL

Q: For `Cc1cc(C(F)(C(F)(F)F)C(F)(F)F)ccc1NC(=O)c1cccc(I)c1C(=O)NC(C)(C)CS(C)(=O)=O` [Flubendiamide], which Density [1] is on record?
A: 1.78^a g/mL

Q: Which Density [1] does the source give for `CC(c1ccc(C(F)(F)F)nc1)S(C)(=O)=NC#N` (stereo not drawn) [Sulfoxaflor] here?
A: 1.34^a g/mL

Q: Which “Solubility in Water” value [2] does the source give for Spinetoram here?
A: 162^a mg/L

Q: What about the Density [1] of the same compound?
A: 1.18^a g/mL

Q: With `CNC(=O)c1cc(C#N)cc(C)c1NC(=O)c1cc(Br)nn1-c1ncccc1Cl` [Cyantraniliprole] as the compound, how does the Density [1] read?
A: 1.65^a g/mL

Q: Which Density [1] does the source give for `CC(C1CC1)C(O)(Cn1cncn1)c1ccc(Cl)cc1` (stereo not drawn) [Cyproconazole] here?
A: 1.31^a g/mL

Q: With `CN1COCN(Cc2cnc(Cl)s2)/C1=N\[N+](=O)[O-]` [Thiamethoxam] as the compound, how does the Density [1] read?
A: 1.76^a g/mL
